Results on 14 molecules are retold here after US7038084B2, “Succinoylamino hydroxyethylamino sulfonamides useful as retroviral protease inhibitors” (G.D. Searle & Co., priority 1992, dated 2006).

Read-outs that look alike come from different tables or passages of the source.

Series [1] addresses T1, HIV protease (Human immunodeficiency virus type 1 group M subtype B, UniProt P04585).
T1 construct: HIV protease is diluted in the assay buffer to a final enzyme concentration of 12.3 nanomolar, based on a molecular weight of 10,780
As to the kind of experiment: HIV protease enzyme assay (fluorogenic substrate 2-aminobenzoyl-Ile-Nle-Phe(p-NO2)-Gln-ArgNH2). The series is classed as biochemical. The source says:
The compounds of the present invention are effective HIV protease inhibitors. Utilizing an enzyme assay as described below, the compounds set forth in the examples herein disclosed inhibited the HIV enzyme. The preferred compounds of the present invention and their calculated IC50 (inhibiting concentration 50%, i.e., the concentration at which the inhibitor compound reduces enzyme activity by 50%) values are shown in Table 8. The enzyme method is described below. The substrate is 2-aminobenzoyl-Ile-Nle-Phe(p-NO2)-Gln-ArgNH2. The positive control is MVT-101 (Miller, M. et al, Science, 246, 1149 (1989)] The assay conditions are as follows:
The above described substrate is dissolved in DMSO, then diluted 10 fold in assay buffer. Final substrate concentration in the assay is 80 μM.
HIV protease is diluted in the assay buffer to a final enzyme concentration of 12.3 nanomolar, based on a molecular weight of 10,780.
The final concentration of DMSO is 14% and the final concentration of glycerol is 18%. The test compound is dissolved in DMSO and diluted in DMSO to 10× the test concentration; 10 μl of the enzyme preparation is added, the materials mixed and then the mixture is incubated at ambient temperature for 15 minutes. The enzyme reaction is initiated by the addition of 40 μl of substrate. The increase in fluorescence is monitored at 4 time points (0, 8, 16 and 24 minutes) at ambient temperature. Each assay is carried out in duplicate wells.

For series [2], the system named is HIV-1. As to the kind of experiment: HIV inhibition assay of acutely infected CEM cells (MTT). The series is classed as cell-based. The protocol: (§1) The HIV inhibition assay method of acutely infected cells is an automated tetrazolium based calorimetric assay essentially that reported by Pauses et al, J. Virol. Methods 20, 309–321 (1988). Assays were performed in 96-well tissue culture plates. CEM cells, a CD4^+ cell line, were grown in RPMI-1640 medium (Gibco) supplemented with a 10% fetal calf serum and were then treated with polybrene (2 μg/ml). An 80 μl volume of medium containing 1×10^4 cells was dispensed into each well of the tissue culture plate. To each well was added a 100 μl volume of test compound dissolved in tissue culture medium (or medium without test compound as a is control) to achieve the desired final concentration and the cells were incubated at 37° C. for 1 hour. A frozen culture of HIV-1 was diluted in culture medium to a concentration of 5×10^4 TCID50 per ml (TCID50=the dose of virus that infects 50% of cells in tissue culture), and a 20 μL volume of the virus sample (containing 1000 TCID50 of virus) was added to wells containing test compound and to wells containing only medium (infected control cells). Several wells received culture medium without virus (uninfected control cells). Likewise, the intrinsic toxicity of the test compound was determined by adding medium without virus to several wells containing test compound. In summary, the tissue culture plates contained the following experiments:
(§2) In experiments 2 and 4 the final concentrations of test compounds were 1, 10, 100 and 500 μg/ml. Either azidothymidine (AZT) or dideoxyinosine (ddI) was included as a positive drug control. […] DMSO was added to all control wells at an appropriate concentration.
(§3) Following the addition of virus, cells were incubated at 37° C. in a humidified, 5% CO2 atmosphere for 7 days. Test compounds could be added on days 0, 2 and 5 if desired. On day 7, post-infection, the cells in each is well were resuspended and a 100 μl sample of each cell suspension was removed for assay. A 20 μL volume of a 5 mg/ml solution of 3-(4,5-dimethylthiazol-2-yl)-2,5-diphenyltetrazolium bromide (MTT) was added to each 100 μL cell suspension, and the cells were incubated for 4 hours at […] in a 5% CO2 environment.
(§4) To each sample was added 100 μl of 10% sodium dodecylsulfate in 0.01 N HCl to lyse the cells, and samples were incubated overnight. The absorbance at 590 nm was determined for each sample using a Molecular Devices microplate reader. Absorbance values for each set of wells is compared to assess viral control infection, uninfected control cell response as well as test compound by cytotoxicity and antiviral efficacy.

Series [3] deals with CEM cells. As to the kind of experiment: Intrinsic toxicity of test compound in uninfected CEM cells (MTT). The series is classed as cell-based. The conditions noted are these: 7 days. The protocol: as §1, §2, §3, §4
Where [4] appears, read: Table 8, 80 μM substrate, 12.3 nanomolar enzyme, pH 6.4, read-out: IC50.
The mark [5] stands for this setting: Human immunodeficiency virus 1, CCRF-CEM, 168 h.

The term IC50 denotes the concentration at which inhibition is half-maximal. Broadly, the EC50 is the concentration at which the effect is half-maximal.

With `CC(C)CCN(C[C@@H](O)[C@H](Cc1ccccc1)NC(=O)[C@H](C)C(C)(C)C(=O)OCc1ccccc1)S(=O)(=O)c1ccccc1` (relative stereo) [Entry 1], the IC50 in series [1] (setting [4]) came to 80 nM.

`CC(C)CCN(C[C@@H](O)[C@H](Cc1ccccc1)NC(=O)[C@H](C)C(C)(C)C(=O)O)S(=O)(=O)c1ccccc1` (single isomer, unassigned) [Entry 1] yielded an EC50 in series [2] (setting [5]) of 15 nM.

With `CC(C)CCN(C[C@@H](O)[C@H](Cc1ccccc1)NC(=O)[C@H](C)C(C)(C)C(=O)O)S(=O)(=O)c1ccccc1` (single isomer, unassigned) [Entry 2], the IC50 in series [1] (setting [4]) is 2 nM.

`CC(C)CCN(C[C@@H](O)[C@H](Cc1ccccc1)NC(=O)[C@H](C)C(C)(C)C(N)=O)S(=O)(=O)c1ccccc1` (single isomer, unassigned) [Entry 2] had an EC50 in series [2] (setting [5]) of 9 nM. Further, in series [3] (human), the TD50 is reported as 60,000 nm.

As for `CC(C)CCN(C[C@@H](O)[C@H](Cc1ccccc1)NC(=O)[C@H](C)C(C)(C)C(N)=O)S(=O)(=O)c1ccccc1` (single isomer, unassigned) [Entry 3], in series [1] (setting [4]), the IC50 was found to be 2 nM.

`CC(C)CN(C[C@@H](O)[C@H](Cc1ccccc1)NC(=O)[C@H](C)C(C)(C)C(=O)O)S(=O)(=O)c1ccccc1` [Entry 3]: it took 1 nM to reach half-maximal inhibition in series [1] (Table 9, enzyme assay) (IC50). For the same molecule, the concentration for a half-maximal effect (EC50) in series [2] (setting [5]) turned out to be 42 nM. In addition, in series [3] (human), the TD50 is given as 220,000 nm.

With `CC(C)CN(C[C@@H](O)[C@H](Cc1ccccc1)NC(=O)[C@H](C)C(C)(C)C(=O)OCc1ccccc1)S(=O)(=O)c1ccccc1` [Entry 4], the IC50 in series [1] (setting [4]) came to 34 nM.

On to `CC(C)CN(C[C@@H](O)[C@H](Cc1ccccc1)NC(=O)[C@H](C)C(C)(C)C(N)=O)S(=O)(=O)c1ccccc1` [Entry 4], for which the EC50 in series [2] (setting [5]) worked out at 5 nM. For the same molecule, in series [3] (human), the TD50 is 62,000 nm.

In the case of `CC(C)CN(C[C@@H](O)[C@H](Cc1ccccc1)NC(=O)[C@H](C)C(C)(C)C(=O)O)S(=O)(=O)c1ccccc1` [Entry 5], the IC50 in series [1] (setting [4]) is 1 nM.

With `COc1ccc(S(=O)(=O)N(CC(C)C)C[C@@H](O)[C@H](Cc2ccccc2)NC(=O)[C@H](C)C(C)(C)C(=O)O)cc1` [Entry 5], the half-maximal effective concentration (EC50) in series [2] (setting [5]) was found to be 27 nM. In addition, the TD50 in series [3] (human) is on record as 200,000 nm.

Regarding `COc1ccc(S(=O)(=O)N(CC(C)C)C[C@@H](O)[C@H](Cc2ccccc2)NC(=O)[C@H](C)C(C)(C)C(=O)OCc2ccccc2)cc1` [Entry 7], the concentration for half-maximal inhibition (IC50) in series [1] (setting [4]) was found to be 16 nM.

Regarding `COc1ccc(S(=O)(=O)N(CC(C)C)C[C@@H](O)[C@H](Cc2ccccc2)NC(=O)[C@H](C)C(C)(C)C(=O)O)cc1` [Entry 8], in series [1] (setting [4]), the IC50 turned out to be 2 nM.

For `COc1ccc(S(=O)(=O)N(CC(C)C)C[C@@H](O)[C@H](Cc2ccccc2)NC(=O)[C@H](C)C(C)(C)C(N)=O)cc1` [Entry 9], the concentration for half-maximal inhibition (IC50) in series [1] (setting [4]) was 2 nM.

Turning to “Butanediamide, N^4-[2-hydroxy-3-[(3-methylbutyl)(phenylsulfonyl)amino]-1-(phenylmethyl)propyl]-2,2,3-Trimethyl-, [1S-[1R*(S*),2S*]]- [Table 8 Entry 3]”, the IC50 in series [1] (setting [4]) turned out to be 2 nM; in series [1] (Table 9, enzyme assay, read-out: IC50) it was 2 nM. Moreover, in series [2] (Table 9, CEM cells acutely infected with HIV-1, 7 days, read-out: EC50), the EC50 came out at 5 nM. Further, the TD50 in series [3] (Table 9, CEM cells without virus) is reported as 58,000 nm.
